In patent US5710149A, “Piperazine derivatives as 5-ht antagonists” (John Wyeth & Brother, Ltd., priority 1991, dated 1998):

Key:
[1] = target: T1, 5-HT1A receptor (Cavia porcellus, UniProt A0A286Y074); experiment: 5-HT1A receptor antagonism: antagonism of 5-carboxamido-tryptamine in the guinea-pig ileum in vitro; details: read-out: pA2, antagonism of 5-carboxamido-tryptamine (converted)
T1 construct: guinea-pig ileum in vitro; from tissue; host or cells: guinea-pig ileum, isolated tissue
T1 sequence (A0A286Y074 1-421): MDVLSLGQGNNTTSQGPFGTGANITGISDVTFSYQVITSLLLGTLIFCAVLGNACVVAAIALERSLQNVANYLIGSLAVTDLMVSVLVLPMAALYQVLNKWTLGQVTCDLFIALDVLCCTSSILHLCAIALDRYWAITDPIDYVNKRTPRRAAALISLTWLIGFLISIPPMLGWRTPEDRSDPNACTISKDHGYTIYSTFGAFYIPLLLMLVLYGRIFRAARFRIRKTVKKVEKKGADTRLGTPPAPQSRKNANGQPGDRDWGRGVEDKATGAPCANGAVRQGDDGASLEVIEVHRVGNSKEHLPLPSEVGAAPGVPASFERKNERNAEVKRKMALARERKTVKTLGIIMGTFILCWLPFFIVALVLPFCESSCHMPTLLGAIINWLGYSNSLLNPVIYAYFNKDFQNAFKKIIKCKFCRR
Procedure: The compounds are tested for 5-HT1A receptor antagonism activity in a test involving the antagonism of 5-carboxamido-tryptamine in the guinea-pig ileum in vitro (based upon the procedure of Fozard et al, Br. J. Pharmac., 1985, 86, 601P).

[2] = target: T2, 5-HT1A receptor (Rattus norvegicus, UniProt P19327); experiment: 5-HT1A receptor binding activity in rat hippocampal membrane homogenate
T2 construct: rat hippocampal membrane homogenated; from tissue; host or cells: rat hippocampus, membrane homogenate
T2 sequence (P19327 1-422): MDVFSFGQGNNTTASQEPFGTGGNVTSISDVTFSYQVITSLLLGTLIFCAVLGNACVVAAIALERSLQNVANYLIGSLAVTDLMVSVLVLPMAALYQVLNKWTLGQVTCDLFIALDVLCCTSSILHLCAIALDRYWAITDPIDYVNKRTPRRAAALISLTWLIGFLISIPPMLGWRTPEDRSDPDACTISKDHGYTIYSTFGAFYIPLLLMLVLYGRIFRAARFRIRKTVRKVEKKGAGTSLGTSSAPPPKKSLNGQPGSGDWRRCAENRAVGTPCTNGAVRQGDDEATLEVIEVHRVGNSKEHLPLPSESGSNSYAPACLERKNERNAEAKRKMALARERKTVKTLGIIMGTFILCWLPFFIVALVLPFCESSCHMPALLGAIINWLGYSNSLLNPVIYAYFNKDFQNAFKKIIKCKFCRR
Procedure: The compounds of the invention are tested for 5-HT1A receptor binding activity in rat hippocampal membrane homogenated by the method of B. S. Alexander and M. D. Wood, J Pharm Pharmacol, 1988, 40, 888-891.

## O=C(C(CCN1CCN(c2cccc3c2OCCO3)CC1)c1ccccc1)N1CCCCCC1 (centres unmarked) [Example 8, 2,3,4,5,6,7-Hexahydro-1-{4-[1-[4-(2,3-dihydro-1,4-benzodioxin-5-yl)piperazinyl]]-2-phenylbutyryl}-1H-azepine]
[1]
  Kb: 398 pM
[2]
  IC50: 600 pM
